Here are results for two compounds from PMC12475274, “Harnessing indole scaffolds to identify small-molecule IRE1α inhibitors modulating XBP1 mRNA splicing” (Nature Communications, 2025).

One experiment concerns IRE1α. Conditions: Fig. 1b; read-out: IC50 of reported IRE1α inhibitor; cited from earlier work.
For another experiment, the target named is IRE1β (ERN2) (Homo sapiens, UniProt Q76MJ5). Nature of the experiment: LanthaScreen Eu kinase binding assay, IRE1β. As to the method:
LanthaScreen^TM Eu kinase binding assays were conducted by SelectScreen Kinase Profiling Services (Thermo Fisher) using Alexa Fluor conjugated kinase tracer, tagged kinase protein, and Eu-labeled anti-tag antibody. The binding of the tracer to the kinase will form the tracer-kinase complex, resulting in a high FRET signal with the Eu-labeled anti-tag antibody. Displacement of the tracer by a kinase inhibitor led to a decreased FRET signal. […] Buffer A containing 50 mM HEPES pH 7.5, 0.01% BRIJ-35, 10 mM MgCl2, and 1 mM EGTA was used.
(§1) Kinase profiling was conducted by the SelectScreen Kinase Profiling Services (Thermo Fisher), using Z′-LYTE, Adapta, or LanthaScreen Eu Kinase Binding Assay for different kinases. The kinome phylogenetic tree was generated using the KinMap web portal.

Another experiment deals with FLT3 (Homo sapiens, UniProt P36888). Nature of the experiment: Kinase profiling (SelectScreen), ZLYTE. The experiment is classed as biochemical. As to the method:
as §1

The target of the next experiment is MAPKAPK2 (Homo sapiens, UniProt P49137). As to the kind of experiment: Kinase profiling (SelectScreen), ZLYTE. It counts as biochemical. As to the method: as §1
A further experiment deals with MAPK14 (p38 alpha) (Homo sapiens, UniProt Q16539). As to the kind of experiment: Kinase profiling (SelectScreen), ZLYTE. It counts as biochemical. Particulars: IA107 at 5 μM; ATP 100 μM. As to the method:
as §1

A further experiment deals with JAK3 (Homo sapiens, UniProt P52333). As to the kind of experiment: Kinase profiling (SelectScreen), ZLYTE. The experiment is classed as biochemical. How it is done:
as §1

The target in another experiment is STK4 (MST1) (Homo sapiens, UniProt Q13043). Nature of the experiment: Kinase profiling (SelectScreen), ZLYTE. It counts as biochemical. How it is done:
as §1

For the next experiment, the target named is SYK (Homo sapiens, UniProt P43405). As to the kind of experiment: Kinase profiling (SelectScreen), ZLYTE. The experiment is classed as biochemical. As to the method:
as §1

A further experiment concerns the target PTK2 (FAK) (Homo sapiens, UniProt Q05397). As to the kind of experiment: Kinase profiling (SelectScreen), ZLYTE. It counts as biochemical. How it is done:
as §1

The next experiment deals with EEF2K (Homo sapiens, UniProt O00418). Nature of the experiment: Kinase profiling (SelectScreen), ZLYTE. The experiment is classed as biochemical. How it is done:
as §1

Another experiment has as its target CSNK2A1 (CK2 alpha 1) (Homo sapiens, UniProt P68400). As to the kind of experiment: Kinase profiling (SelectScreen), ZLYTE. It counts as biochemical. How it is done: as §1
The next experiment has as its target MAP2K6 (MKK6) (Homo sapiens, UniProt P52564). Nature of the experiment: Kinase profiling (SelectScreen), ZLYTE. The experiment is classed as biochemical. Particulars: IA107 at 5 μM; ATP 100 μM. How it is done: as §1
For the next experiment, the target named is HIPK4 (Homo sapiens, UniProt Q8NE63). Nature of the experiment: Kinase profiling (SelectScreen), ZLYTE. It counts as biochemical. How it is done:
as §1

The target in a further experiment is CSNK1G2 (CK1 gamma 2) (Homo sapiens, UniProt P78368). Nature of the experiment: Kinase profiling (SelectScreen), ZLYTE. It counts as biochemical. How it is done: as §1
For a further experiment, the target named is EPHB4 (Homo sapiens, UniProt P54760). As to the kind of experiment: Kinase profiling (SelectScreen), ZLYTE. The experiment is classed as biochemical. As to the method:
as §1

The next experiment has as its target AURKA (Aurora A) (Homo sapiens, UniProt O14965). Nature of the experiment: Kinase profiling (SelectScreen), ZLYTE. It counts as biochemical. How it is done:
as §1

The next experiment addresses PIM1 (Homo sapiens, UniProt P11309). As to the kind of experiment: Kinase profiling (SelectScreen), ZLYTE. It counts as biochemical. As to the method:
as §1

The target of another experiment is IGF1R (Homo sapiens, UniProt P08069). As to the kind of experiment: Kinase profiling (SelectScreen), ZLYTE. It counts as biochemical. As to the method: as §1
The next experiment deals with ERBB2 (HER2) (Homo sapiens, UniProt P04626). Nature of the experiment: Kinase profiling (SelectScreen), ZLYTE. The experiment is classed as biochemical. As to the method:
as §1

The target of a further experiment is AKT1 (PKB alpha) (Homo sapiens, UniProt P31749). Nature of the experiment: Kinase profiling (SelectScreen), ZLYTE. The experiment is classed as biochemical. As to the method: as §1
AKT1 (PKB alpha), sequence (P31749 whole entry): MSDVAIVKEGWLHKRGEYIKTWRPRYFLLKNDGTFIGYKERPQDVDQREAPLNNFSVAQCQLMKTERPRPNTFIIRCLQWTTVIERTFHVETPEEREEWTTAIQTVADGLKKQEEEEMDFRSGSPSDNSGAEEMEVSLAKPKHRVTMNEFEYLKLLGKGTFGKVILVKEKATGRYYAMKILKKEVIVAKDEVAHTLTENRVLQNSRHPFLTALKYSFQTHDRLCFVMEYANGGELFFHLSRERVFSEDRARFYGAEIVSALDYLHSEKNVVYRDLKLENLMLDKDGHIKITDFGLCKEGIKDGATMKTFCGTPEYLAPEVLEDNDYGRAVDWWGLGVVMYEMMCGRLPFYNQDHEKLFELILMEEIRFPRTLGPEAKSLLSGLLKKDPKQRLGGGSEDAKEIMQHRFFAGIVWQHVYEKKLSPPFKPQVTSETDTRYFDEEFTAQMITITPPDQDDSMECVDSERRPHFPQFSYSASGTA
For another experiment, the target named is PRKACA (PKA) (Homo sapiens, UniProt P17612). Nature of the experiment: Kinase profiling (SelectScreen), ZLYTE. The experiment is classed as biochemical. As to the method: as §1
The next experiment addresses RPS6KA3 (RSK2) (Homo sapiens, UniProt P51812). As to the kind of experiment: Kinase profiling (SelectScreen), ZLYTE. It counts as biochemical. As to the method:
as §1

Another experiment concerns the target FRAP1 (mTOR) (Homo sapiens, UniProt P42345). Nature of the experiment: Kinase profiling (SelectScreen), ZLYTE. It counts as biochemical. As to the method: as §1
The target in the next experiment is CLK2 (Homo sapiens, UniProt P49760). Nature of the experiment: Kinase profiling (SelectScreen), ZLYTE. It counts as biochemical. As to the method:
as §1

The next experiment deals with IKBKB (IKK beta) (Homo sapiens, UniProt O14920). As to the kind of experiment: Kinase profiling (SelectScreen), ZLYTE. The experiment is classed as biochemical. How it is done: as §1
The target in another experiment is DNA-PK (Homo sapiens, UniProt P78527). As to the kind of experiment: Kinase profiling (SelectScreen), ZLYTE. The experiment is classed as biochemical. As to the method: as §1
In another experiment the target is PRKD1 (PKC mu) (Homo sapiens, UniProt Q15139). Nature of the experiment: Kinase profiling (SelectScreen), ZLYTE. The experiment is classed as biochemical. As to the method:
as §1

The next experiment has as its target CAMK1D (CaMKI delta) (Homo sapiens, UniProt Q8IU85). Nature of the experiment: Kinase profiling (SelectScreen), ZLYTE. It counts as biochemical. As to the method: as §1
The next experiment concerns the target CDK1/cyclin B (Homo sapiens, UniProt P06493). As to the kind of experiment: Kinase profiling (SelectScreen), ZLYTE. It counts as biochemical. How it is done: as §1
The target of another experiment is DAPK3 (ZIPK) (Homo sapiens, UniProt O43293). As to the kind of experiment: Kinase profiling (SelectScreen), ZLYTE. It counts as biochemical. How it is done: as §1
Another experiment concerns the target ACVR1B (ALK4) (Homo sapiens, UniProt P36896). As to the kind of experiment: Kinase profiling (SelectScreen), ZLYTE. It counts as biochemical. How it is done:
as §1

A further experiment deals with DYRK3 (Homo sapiens, UniProt O43781). As to the kind of experiment: Kinase profiling (SelectScreen), ZLYTE. The experiment is classed as biochemical. How it is done:
as §1

The target of the next experiment is MAPK1 (ERK2) (Homo sapiens, UniProt P28482). As to the kind of experiment: Kinase profiling (SelectScreen), ZLYTE. It counts as biochemical. How it is done:
as §1

Values joined by “and” are separate entries in the source; they are usually repeats but may differ in a detail not shown here. Equal values may be shown once.

IRE1β (ERN2), sequence (Q76MJ5 35-926): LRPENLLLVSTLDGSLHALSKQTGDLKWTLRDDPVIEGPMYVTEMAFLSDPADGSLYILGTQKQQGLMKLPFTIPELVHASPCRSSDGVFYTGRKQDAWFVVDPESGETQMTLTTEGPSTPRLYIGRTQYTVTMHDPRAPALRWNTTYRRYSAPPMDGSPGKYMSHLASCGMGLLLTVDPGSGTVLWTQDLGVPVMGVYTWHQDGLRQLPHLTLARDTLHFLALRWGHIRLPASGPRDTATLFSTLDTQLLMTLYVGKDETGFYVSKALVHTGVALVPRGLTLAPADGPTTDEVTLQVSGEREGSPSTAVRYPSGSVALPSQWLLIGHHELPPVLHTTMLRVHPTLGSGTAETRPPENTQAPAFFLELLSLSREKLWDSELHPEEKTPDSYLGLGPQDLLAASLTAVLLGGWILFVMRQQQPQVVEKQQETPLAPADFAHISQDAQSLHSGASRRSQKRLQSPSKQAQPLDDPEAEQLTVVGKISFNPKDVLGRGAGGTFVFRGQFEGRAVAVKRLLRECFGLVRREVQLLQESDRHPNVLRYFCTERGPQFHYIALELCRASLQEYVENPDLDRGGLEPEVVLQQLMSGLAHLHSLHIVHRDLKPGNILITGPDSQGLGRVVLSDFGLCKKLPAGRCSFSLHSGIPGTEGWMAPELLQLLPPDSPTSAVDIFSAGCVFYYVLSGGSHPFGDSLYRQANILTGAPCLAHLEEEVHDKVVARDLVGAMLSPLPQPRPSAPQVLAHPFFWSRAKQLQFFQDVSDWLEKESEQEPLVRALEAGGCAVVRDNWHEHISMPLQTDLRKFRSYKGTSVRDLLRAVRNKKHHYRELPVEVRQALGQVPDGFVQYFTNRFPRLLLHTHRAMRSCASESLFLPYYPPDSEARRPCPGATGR
DYRK3, sequence (O43781 whole entry): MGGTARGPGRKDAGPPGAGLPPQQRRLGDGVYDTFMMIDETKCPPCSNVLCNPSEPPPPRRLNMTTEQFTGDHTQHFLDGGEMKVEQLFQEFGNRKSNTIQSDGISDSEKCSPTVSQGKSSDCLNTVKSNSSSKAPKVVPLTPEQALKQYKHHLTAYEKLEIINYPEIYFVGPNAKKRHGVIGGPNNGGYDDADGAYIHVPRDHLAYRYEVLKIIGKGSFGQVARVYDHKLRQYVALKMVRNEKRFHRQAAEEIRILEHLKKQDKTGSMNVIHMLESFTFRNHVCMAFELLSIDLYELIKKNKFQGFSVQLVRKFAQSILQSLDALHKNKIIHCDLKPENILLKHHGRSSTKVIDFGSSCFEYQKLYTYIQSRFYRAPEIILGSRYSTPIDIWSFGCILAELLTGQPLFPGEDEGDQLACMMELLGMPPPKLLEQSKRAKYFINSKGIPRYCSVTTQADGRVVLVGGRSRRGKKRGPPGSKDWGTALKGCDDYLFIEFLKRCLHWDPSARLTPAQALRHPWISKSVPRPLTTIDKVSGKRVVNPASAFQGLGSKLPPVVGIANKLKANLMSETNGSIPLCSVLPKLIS
EEF2K, sequence (O00418 whole entry): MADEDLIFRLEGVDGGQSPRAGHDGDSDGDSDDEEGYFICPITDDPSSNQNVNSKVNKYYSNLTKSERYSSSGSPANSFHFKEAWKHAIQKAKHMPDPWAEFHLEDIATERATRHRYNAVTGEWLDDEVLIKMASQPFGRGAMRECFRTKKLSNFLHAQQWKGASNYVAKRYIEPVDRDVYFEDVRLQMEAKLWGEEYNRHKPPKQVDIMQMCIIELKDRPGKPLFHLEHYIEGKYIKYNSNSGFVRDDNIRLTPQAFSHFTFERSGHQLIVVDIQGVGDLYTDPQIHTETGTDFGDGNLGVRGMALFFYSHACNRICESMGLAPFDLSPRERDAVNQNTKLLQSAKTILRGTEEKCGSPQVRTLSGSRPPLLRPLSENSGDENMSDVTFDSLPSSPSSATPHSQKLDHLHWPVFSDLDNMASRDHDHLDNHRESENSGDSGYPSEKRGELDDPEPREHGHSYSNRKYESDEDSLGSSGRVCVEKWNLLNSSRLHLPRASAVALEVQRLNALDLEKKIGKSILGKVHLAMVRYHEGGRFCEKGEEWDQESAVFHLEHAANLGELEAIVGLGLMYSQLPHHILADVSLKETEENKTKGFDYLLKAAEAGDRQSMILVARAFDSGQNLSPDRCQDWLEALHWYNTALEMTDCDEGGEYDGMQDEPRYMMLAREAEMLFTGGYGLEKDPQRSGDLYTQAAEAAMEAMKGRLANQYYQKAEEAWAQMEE
ACVR1B (ALK4), sequence (P36896 24-505): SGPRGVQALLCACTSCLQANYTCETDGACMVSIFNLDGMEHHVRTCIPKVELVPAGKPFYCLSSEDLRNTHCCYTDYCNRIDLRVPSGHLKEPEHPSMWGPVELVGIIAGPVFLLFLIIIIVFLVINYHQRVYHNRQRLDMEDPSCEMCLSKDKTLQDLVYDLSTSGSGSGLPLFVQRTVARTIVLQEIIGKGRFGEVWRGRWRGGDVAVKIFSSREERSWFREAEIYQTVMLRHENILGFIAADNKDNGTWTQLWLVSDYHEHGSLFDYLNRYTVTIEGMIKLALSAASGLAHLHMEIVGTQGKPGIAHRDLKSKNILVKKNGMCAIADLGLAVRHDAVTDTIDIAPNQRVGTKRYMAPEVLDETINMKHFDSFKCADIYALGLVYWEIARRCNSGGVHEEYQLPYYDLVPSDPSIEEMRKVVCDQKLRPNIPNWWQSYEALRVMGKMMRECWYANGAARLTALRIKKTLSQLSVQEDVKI
FLT3, sequence (P36888 27-993): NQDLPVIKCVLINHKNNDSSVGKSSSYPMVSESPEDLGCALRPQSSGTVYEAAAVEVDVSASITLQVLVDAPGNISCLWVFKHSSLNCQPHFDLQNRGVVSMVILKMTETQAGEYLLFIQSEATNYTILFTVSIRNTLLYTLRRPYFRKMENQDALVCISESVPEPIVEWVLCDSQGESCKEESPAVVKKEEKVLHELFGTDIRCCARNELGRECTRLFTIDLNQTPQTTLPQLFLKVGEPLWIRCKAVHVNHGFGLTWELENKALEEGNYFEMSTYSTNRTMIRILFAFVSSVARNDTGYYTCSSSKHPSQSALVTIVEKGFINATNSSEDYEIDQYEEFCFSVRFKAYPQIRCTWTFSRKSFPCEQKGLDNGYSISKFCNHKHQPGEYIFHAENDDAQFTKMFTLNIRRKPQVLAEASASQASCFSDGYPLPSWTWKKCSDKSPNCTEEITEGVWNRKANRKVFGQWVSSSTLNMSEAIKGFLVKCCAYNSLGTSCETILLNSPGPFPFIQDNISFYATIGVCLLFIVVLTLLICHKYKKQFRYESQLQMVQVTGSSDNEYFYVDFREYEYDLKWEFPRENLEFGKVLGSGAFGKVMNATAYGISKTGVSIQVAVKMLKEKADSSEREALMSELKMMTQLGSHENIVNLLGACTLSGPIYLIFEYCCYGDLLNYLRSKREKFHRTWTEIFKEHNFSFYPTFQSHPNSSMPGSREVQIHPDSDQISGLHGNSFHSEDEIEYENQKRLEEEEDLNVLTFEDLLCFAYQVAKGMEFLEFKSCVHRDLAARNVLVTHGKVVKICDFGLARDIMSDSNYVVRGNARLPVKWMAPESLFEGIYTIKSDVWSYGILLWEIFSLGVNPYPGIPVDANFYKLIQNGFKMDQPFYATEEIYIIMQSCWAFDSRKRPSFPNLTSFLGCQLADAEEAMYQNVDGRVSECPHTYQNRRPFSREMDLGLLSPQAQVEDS
AURKA (Aurora A), sequence (O14965 whole entry): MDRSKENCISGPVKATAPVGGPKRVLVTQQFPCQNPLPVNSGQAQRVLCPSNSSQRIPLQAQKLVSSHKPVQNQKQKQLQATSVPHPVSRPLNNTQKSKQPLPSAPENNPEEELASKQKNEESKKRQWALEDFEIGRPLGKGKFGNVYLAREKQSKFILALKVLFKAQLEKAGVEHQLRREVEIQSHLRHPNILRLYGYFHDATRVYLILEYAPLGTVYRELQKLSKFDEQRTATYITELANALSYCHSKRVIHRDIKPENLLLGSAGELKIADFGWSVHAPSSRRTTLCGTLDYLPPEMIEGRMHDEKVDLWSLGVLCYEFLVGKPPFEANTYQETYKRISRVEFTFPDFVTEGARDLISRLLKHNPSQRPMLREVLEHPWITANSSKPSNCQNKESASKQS
MAP2K6 (MKK6), sequence (P52564 whole entry): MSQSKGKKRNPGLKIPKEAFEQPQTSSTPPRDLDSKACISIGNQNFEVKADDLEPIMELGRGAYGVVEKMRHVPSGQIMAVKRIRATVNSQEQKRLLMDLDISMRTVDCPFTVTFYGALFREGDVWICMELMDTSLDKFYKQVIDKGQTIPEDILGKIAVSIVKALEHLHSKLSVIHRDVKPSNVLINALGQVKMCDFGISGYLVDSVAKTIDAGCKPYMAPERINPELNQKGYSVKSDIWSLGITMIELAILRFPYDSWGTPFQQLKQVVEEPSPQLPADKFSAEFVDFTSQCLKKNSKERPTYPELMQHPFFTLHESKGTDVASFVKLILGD

`Cc1ccc2c(NS(=O)(=O)c3ccccc3Cl)cccc2c1Oc1ncccc1-c1ccnc(N[C@H]2CCCNC2)n1` [KIRA8]: in the experiment with IRE1α, the IC50 (in general, the concentration needed to halve the response being measured) was 6 nM.
For `Cc1c(CCC(=O)O)c2cc(Br)ccc2n1C(=O)c1ccccc1` [IA107], the “IRE1β Kinase Displacement(%)” value on IRE1β (ERN2) (16700 μM as printed) was 87.04% and 84.54%. In addition, at IRE1β (ERN2) (LanthaScreen Eu kinase binding assay, read-out: IRE1β (ERN2) kinase domain IC50), the IC50 came to 1440 nM. In addition, on IRE1β (ERN2) (kinase binding IC50s), the “selectivity for IRE1α over IRE1β” value came out at 2 fold. The inhibition (as a rule, the change of the read-out against control, counted positive when it falls) at 5 µM was determined as 70% on IRE1β (ERN2) (kinase profiling, ERN2, LanthaScreen Binding, IA107 at 5 μM); 6% against FLT3; 5% against MAPKAPK2; 6% on MAPK14 (p38 alpha); 0% against JAK3; 0% against STK4 (MST1). Besides, the inhibition at 5 µM against SYK came to 3%; at PTK2 (FAK) it was 4%; against EEF2K it was 5%; against CSNK2A1 (CK2 alpha 1) it was 6%; against MAP2K6 (MKK6), 2%; on HIPK4, 6%. The inhibition at 5 µM against CSNK1G2 (CK1 gamma 2) is 6%; against EPHB4 it was 3%; against AURKA (Aurora A), 5%; against PIM1 it was 39%; against IGF1R, 3%; at ERBB2 (HER2), -3%. Further, the inhibition at 5 µM is 0% against AKT1 (PKB alpha); 9% against PRKACA (PKA); 1% on RPS6KA3 (RSK2); 5% against FRAP1 (mTOR); 7% on CLK2; 4% on IKBKB (IKK beta). Moreover, the inhibition at 5 µM against DNA-PK is -2%; against PRKD1 (PKC mu), 0%; against CAMK1D (CaMKI delta), 8%; against CDK1/cyclin B it was 4%; against DAPK3 (ZIPK), 1%; on ACVR1B (ALK4), -5%. The inhibition at 5 µM against DYRK3 and against MAPK1 (ERK2) was 2% each time.
